Counter-ions that a name gives are not always drawn.
Tests used:
[1] = tested on: E. coli Nissle L36/L31 ribosomal accessory protein promoter (ykgMO) GFP biosensor; assay: Induction of promoter-GFP biosensor, GFP by flow cytometry; type: cell-based, Escherichia coli
Text: (§1) Initial Data. […] Sequences were obtained via Illumina NextSeq and mapped against E. coli Nissle 1917 reference genome.
(§2) Initial test constructs consisted of the intergenic promoter regions for the following genes: E. coli Nissle—sulA, entCE (enterobactin synthase operon), ykgMO (paralog for L36/L31 ribosomal accessory protein), ABC Transporter (WP_000977398.1); L. reuteri—ABC Transporter operon (EGC15836.1), Acyl carrier protein dehydratase (EGC15031.1), argininosuccinate lyase (EGC15288.1). Each promoter region was cloned directly upstream of a green fluorescent protein cassette. For L. reuteri, the eGFP cassette was used while the sGFP cassette was used for E. coli. All constructs were assembled via the Gibson Reaction (NEBiosciences).

[2] = tested on: E. coli Nissle enterobactin synthase promoter GFP biosensor; assay: as above; type: cell-based, Escherichia coli
Text: as §1, §2

[3] = tested on: L. reuteri acyl carrier protein dehydratase promoter GFP biosensor; assay: as above; type: cell-based, Lactobacillus reuteri; conditions: co-cultured with TPEN vs uninduced sensor
Description: All constructs were assembled via the Gibson Reaction (NEBiosciences).
All flow runs were performed in 96 well plates.
TPEN Induction—TPEN, a synthetic zinc chelator, induction assays were performed as calprotectin induction, with TPEN replacing calprotectin. Growth condition were also identical. Media ratios differed. In the TPEN studies, 180 uL of media was used with 20 uL cells and 2 uL of TPEN in absolute ethanol.

[4] = tested on: L. reuteri ABC transporter promoter GFP biosensor; assay: Metal complementation assay (metal added to sensors co-cultured with calprotectin); type: cell-based, Lactobacillus reuteri
Description: Metal complementation assays—Mixes were similar to the calprotectin induction assays with the addition of zinc (II) sulfate, manganese (II) sulfate, or iron (II) chloride. Concentrations of metals were added in excess of 1×, 10×, and 100× the binding capacity of 40 ug/mL (1.4 uM) calprotectin. In total, 0, 4 uM, 40 uM, and 400 uM of zinc and iron were added and 0, 2 uM, 20 uM, and 200 uM of manganese was added. Slightly higher than equimolar amounts were added to correct for possible pipetting error. Cells were grown for the same amount of time as in the calprotectin induction assays.
Flow cytometry—˜10-40 uL of cells were added to 1 mL of PBS sheath fluid and run through the flow cytometer for a total of 10000 events. Cells were thresholded by forward/side scatter, and.fsc files were analyzed with the FlowCal software, developed by the Jeff Tabor Lab. In short, FlowCal identifies the densest region of cells on the associated scatterplot, and analyzes the fluorescent output of 30% of the cells in this region so as to evaluate a homogenous dataset and remove possible outliers. […] In this case, GFP output is reported as molecules of equivalent fluorophores (MEF), and was evaluated on the FL1 channel.

[5] = tested on: E. coli Nissle enterobactin synthase promoter GFP biosensor
[6] = tested on: E. coli Nissle L36/L31 ribosomal accessory protein promoter GFP biosensor; conditions: sensors co-cultured with calprotectin
[7] = tested on: L. reuteri acyl carrier protein dehydratase promoter GFP biosensor; conditions: co-cultured with 40 ug/mL calprotectin
[8] = tested on: Lactobacillus reuteri PTA 6475; assay: Minimum inhibitory concentration (MIC) assay, overnight growth, OD600; type: cell-based; conditions: L. reuteri
Description: (§3) Minimum inhibitory concentration (MIC) assay—Escherichia coli Nissle 1917 and Lactobacillus reuteri PTA 6475 were used as vectors for biosensor construction. For both strains, bacteria was grown overnight in media (MRS broth for L. reuteri; LB broth for E. coli). From the overnight culture, 10^4 bacterial cells in 38 uL media (LDM4 for L. reuteri; LB broth for E. coli) were seeded into a 96 well-plate. 62 uL of calprotectin in buffer (20 mM Tris (pH 7.5), 100 mM NaCl, 10 mM beta-mercaptoethanol, 3 mM CaCl2) was added in 2-fold dilutions. Recombinant human calprotectin was supplied by Dr. Walter Chazin of Vanderbilt University. Bacteria was allowed to grow overnight, and OD600 values were taken the following morning.
(§4) RNA Isolation—Sub-inhibitory concentrations of calprotectin were used for the calprotectin induction. […] Cells were grown overnight, and then back-diluted 1:100 into 5 mL of media (LDM4 for L. reuteri; LB Broth for E. coli). Cells were grown up to log phase, and then the sub-inhibitory amount of calprotectin was added to the tube in calprotectin buffer. Growth continued for 30 total minutes in the presence of the calprotectin, and then transcription was frozen by addition of ice cold methanol for L. reuteri and ice-cold ethanol for E. coli Nissle. Cells were collected via centrifugation, and then RNA was isolated using the QIAgen RNEasy kit. Slight modifications were included. For L. reuteri, mechanical cell-wall disruption was used via bead-beating. For E. coli, lysozyme/proteinase K was used to disrupt the gram-negative cell wall. RNA was quantified and tested for purity using a Nanodrop.
(§5) Both prospective vector strains (Lactobacillus reuteri and Escherichia coli Nissle) were grown overnight in the presence of 2-fold dilutions of calprotectin in order to deduce minimum inhibitory concentrations of calprotectin on the microbes.

[9] = tested on: Escherichia coli Nissle 1917; assay: as above; type: cell-based; conditions: E. coli Nissle
Description: as §3, §4, §5

[10] = tested on: Lactobacillus reuteri ABC transporter promoter GFP sensor; conditions: 40 ug/mL calprotectin vs uninduced sensor
Text: as §2

[11] = co-cultured with 1.5 uM TPEN vs media only
[12] = co-cultured with 40 ug/mL calprotectin
[13] = 40 ug/mL calprotectin vs un-induced
[14] = overnight growth, 2-fold dilutions

Molecule: c1ccc(CN(CCN(Cc2ccccn2)Cc2ccccn2)Cc2ccccn2)nc1 [TPEN, N,N,N′,N′-tetrakis(2-pyridinylmethyl)-1,2-ethanediamine]
- fold increase in GFP expression [1, 11]: 4.5 fold
- fold increase in GFP expression [2, 11]: 5.6 fold
- fold increase in GFP expression [3]: 2.5 fold

Molecule: O=S(=O)([O-])[O-].[Mn+2] [manganese, manganese (II) sulfate]
- effect of added manganese on sensor activity ([4]; manganese at 100× binding capacity of 40 ug/mL calprotectin): did not fully ablate sensor activity

Molecule: [Cl][Fe][Cl] [iron, iron (II) chloride]
- iron excess required to turn off promoter activity ([4]; × the binding capacity of 40 ug/mL calprotectin, possibly a cell survival issue): 100 ×

Molecule: [Zn+2] [zinc, zinc (II) sulfate]
- zinc concentration sufficient to totally abolish promoter activity [4, 12]: 4 µM
- zinc concentration sufficient to totally abolish promoter activity [5, 12]: 4 µM
- effect of added zinc on calprotectin-induced increase in GFP expression ([5]; sensors co-cultured with calprotectin): abolishes the calprotectin-induced increase in GFP expression
- effect of added zinc on calprotectin-induced increase in GFP expression [6]: abolishes the calprotectin-induced increase in GFP expression
- zinc concentration sufficient to totally abolish promoter activity [7]: 4 µM

B1: calprotectin: neutrophil-source antimicrobial peptide heterodimer that sequesters zinc, manganese and iron; recombinant human, supplied by Dr. Walter Chazin (protein, UniProt P05109 1-93; P06702 1-114, looked up)
Protein S100-A8: MLTELEKALNSIIDVYHKYSLIKGNFHAVYRDDLKKLLETECPQYIRKKGADVWFKELDINTDGAVNFQEFLILVIKMGVAAHKKSHEESHKE
Protein S100-A9: MTCKMSQLERNIETIINTFHQYSVKLGHPDTLNQGEFKELVRKDLQNFLKKENKNEKVIEHIMEDLDTNADKQLSFEEFIMLMARLTWASHEKMHEGDEGPGHHHKPGLGEGTP
- fold increase in GFP expression [1, 13]: 2.6 fold
- fold increase in GFP expression [2, 13]: 1.8 fold
- highest concentration that did not inhibit overnight growth (sub-inhibitory concentration) [8]: 15.625 µg/mL
- minimum inhibitory concentration (growth inhibited at this concentration and above) [8, 14]: 31.25 µg/mL
- highest concentration that did not inhibit overnight growth (sub-inhibitory concentration) [9]: 125 µg/mL
- minimum inhibitory concentration (growth inhibited at this concentration and above) [9, 14]: 250 µg/mL
- fold increase in GFP expression [10]: 4.93 fold

Source: patent US20250020667A1, “DEVELOPMENT OF MICROBIAL BIOSENSORS FOR INTESTINAL INFLAMMATION” (Baylor College of Medicine, priority 2017, published 2025)
